{
  "source": "paper PMC9046208",
  "about": "“Foldamers reveal and validate therapeutic targets associated with toxic α-synuclein self-assembly” (Nature Communications, 2022)",
  "key": {"[1]": {"tested_on": "HEK cells expressing αS-A53T-YFP", "assay": "Inclusion count by confocal imaging, HEK cells αS-A53T-YFP", "type": "cell-based", "conditions": "αS fibers 7 μM aggregated with equimolar SK-129, 24 h", "protocol": "The Lipofectamine solution (Lipofectamine+P3000 reagent, Thermo Fisher Scientific, Waltham, MA) was diluted to a ratio of 1:20 (v,v) in the OptiMEM (Fisher Scientific, Pittsburgh, PA) media. Simultaneously, the αS fiber solution (Stock solution conc. = 100 μM) was diluted in OptiMEM media to the desired conc. used for each assay. The αS fiber solution was sonicated for 10 min at r.t., followed by the addition of the Lipofectomine solution (in the OptiMEM media) at 1:1 ratio. Subsequently, this solution was incubated for another 10 min and then added to the HEK cells media with a dilution factor of 10 (10 μL of the combined αS fiber solution+Lipofectomine solution, in 90 μL HEK cells media). […]\nWe used confocal microscopy imaging to manually count the endogenous inclusions (of αS-A53T-YFP and αS-YFP). […] The counting of inclusions was carried out for six different experiments and for each experiment, 100 cells were counted from at least four different locations from the eight-well plate. The cells were counted manually by counting the number of Hoechst 33342 dye-stained nuclei in the cells. Also, the inclusions in the cells were counted manually at different locations in the eight-well plate."}, "[2]": {"tested_on": "HEK cells expressing αS-A53T-YFP", "assay": "MTT viability of HEK cells treated with PMCA samples / PD fibrils", "type": "cell-based", "conditions": "for Relative cell viability (Supp. Figure 27): HEK cells, PD+SK-129", "protocol": "The HEK293 cells that stably express αS-A53T-YFP and αS-YFP were grown in DMEM with 10% FBS and 1% pen/strep and cultured in an incubator at 37 °C and 5% CO2(g). A total of 60,000 cells per well in 300 µL media were plated in a µ-slide eight-well plate (Ibidi, Munich, Germany) and incubated for 24 h to adhere to the plate. […] Next, the plate was incubated for 24 h, followed by the addition of 30 µL of 1x PBS buffer containing MTT dye (in 1x PBS buffer, 5 mg/mL) to each well. The plates were wrapped in aluminum foil and incubated for 3 h. After 3 h, all liquid was aspirated carefully without disturbing the formazan crystals. To each well, 300 µL of DMSO was added to dissolve the crystals. Once dissolved, the DMSO solution was transferred to a clear 96-well plate (100 µL/well). The absorbance was read on a 96-well plate reader at 570 nm. The cytotoxicity of the HEK cells was monitored for up to 4 days.\nThe seeds were generated by aggregating recombinant αS (100 µM) in the absence and presence of SK-129 at an equimolar ratio under the ThT aggregation kinetic conditions for seven days. In the case of seeds from the brain, we used a PMCA sample (5th cycle) generated from the brain seeds in the absence and presence of SK-129 at an equimolar ratio.\nSupplementary Fig. 27. Effect of SK-129 on the PD fibrils catalyzed aggregation of αS templated by PMCA technique. a, The representative confocal images of HEK cells after treatment with PMCA samples from the PD and control brain. The green color images are due to the intracellularly expressed αSA53T-YFP. The αSA53T-YFP inclusions, αS-pS-129, and DAPI are represented by green, red, and blue colors. The αSA53T-YFP inclusions are indicated by white arrows. b, The αSA53T-YFP inclusions, P62, and DAPI are represented by green, red, and blue colors. The αSA53T-YFP inclusions are indicated by white arrows. c, The statistical analysis of the relative viability of HEK cells treated with the indicated conditions for 24 h determined using the MTT-reduction toxicity assay. The data were expressed as mean and the error bars report the s.e.m.\n(n = 4 independent cell viability experiments and each n consisted of 4 technical replicates). The statistical analysis was performed using ANOVA with Tukey’s multiple comparison test. *p<0.05, **p<0.01, ***p<0.001, ****p<0.0001. Source data are provided as a Source Data file."}},
  "data": [
    {"compound": "COC(=O)c1cc(OCC(=O)O)c2cccc(NC(=O)c3cc(OC(C)C)c4cccc(NC(=O)c5cc(OCC(=O)O)c6cccc(NC(=O)c7cc(OC(C)C)c8cccc([N+](=O)[O-])c8n7)c6n5)c4n3)c2n1", "note": "[SK-129]", "values": [
      {"measurement": "inclusions (αS-A53T-YFP or αS-YFP)", "setting": "[1]", "result": "A very small number of inclusions"},
      {"measurement": "Relative cell viability (Supp. Figure 27)", "setting": "[2]; trial 1", "result": 0.879},
      {"measurement": "Relative cell viability (Supp. Figure 27)", "setting": "[2]; trial 2", "result": 0.798},
      {"measurement": "Relative cell viability (Supp. Figure 27)", "setting": "[2]; trial 3", "result": 0.821},
      {"measurement": "Relative cell viability (Supp. Figure 27)", "setting": "[2]; trial 4", "result": 0.823},
      {"measurement": "Relative cell viability (Supp. Figure 27)", "setting": "[2]; trial 5", "result": 0.659},
      {"measurement": "Relative cell viability (Supp. Figure 27)", "setting": "[2]; trial 6", "result": 0.702},
      {"measurement": "Relative cell viability (Supp. Figure 27)", "setting": "[2]; trial 7", "result": 0.735},
      {"measurement": "Relative cell viability (Supp. Figure 27)", "setting": "[2]; trial 8", "result": 0.834},
      {"measurement": "Relative cell viability (Supp. Figure 27)", "setting": "[2]; trial 9", "result": 0.865},
      {"measurement": "Relative cell viability (Supp. Figure 27)", "setting": "[2]; trial 10", "result": 0.808},
      {"measurement": "Relative cell viability (Supp. Figure 27)", "setting": "[2]; trial 11", "result": 0.853},
      {"measurement": "Relative cell viability (Supp. Figure 27)", "setting": "[2]; trial 12", "result": 0.884},
      {"measurement": "Relative cell viability (Supp. Figure 27)", "setting": "[2]; trial 13", "result": 0.902},
      {"measurement": "Relative cell viability (Supp. Figure 27)", "setting": "[2]; trial 14", "result": 0.783},
      {"measurement": "Relative cell viability (Supp. Figure 27)", "setting": "[2]; trial 15", "result": 0.732},
      {"measurement": "Relative cell viability (Supp. Figure 27)", "setting": "[2]; trial 16", "result": 0.693},
      {"measurement": "cell viability of HEK cells", "setting": "[2]; PD fibrils+SK-129, 24 h, MTT, PD fibrils alone 50.5 ± 5.4%", "result": "85.6 ± 7.8", "unit": "%"}
    ]}
  ]
}
